Results on 12 compounds are retold here after US20240109918A1, “HETEROCYCLIC COMPOUNDS AND USES THEREOF” (Kumquat Biosciences Inc., priority 2022, published 2024).

The target of one assay is T1, KRASG12D (Homo sapiens, UniProt P01116, G12D).
T1 construct: made in house; host or cells: E. coli BL21 (DE3)
Put plainly: Bio-Biochem-PPI-HTRF Ras-SOS1 interaction assay (KRAS G12D). The following applies: 5 nM. The class given is biochemical. An outline of the steps:
(§1)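 GST-tagged K-Ras (wt or G12D) with anti-GST-Eu(K) donor was mixed with His-hSOS1 and anti-6His-XL665 acceptor in HEPES pH 7.4/NaCl/DTT/BSA/Igepal buffer, with compound in duplicate from 10 μM down to 0.01 μM. After about 10 min or longer, HTRF 665/620 nm ratio gave IC50.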
On the technique in general: TR-FRET usually uses a lanthanide donor and a delayed reading to cut background.

Another assay deals with T2, KRASwt (Homo sapiens, UniProt P01116).
T2 construct: made in house; host or cells: E. coli BL21 (DE3)
T2 sequence (P01116 1-188 isoform P01116-2): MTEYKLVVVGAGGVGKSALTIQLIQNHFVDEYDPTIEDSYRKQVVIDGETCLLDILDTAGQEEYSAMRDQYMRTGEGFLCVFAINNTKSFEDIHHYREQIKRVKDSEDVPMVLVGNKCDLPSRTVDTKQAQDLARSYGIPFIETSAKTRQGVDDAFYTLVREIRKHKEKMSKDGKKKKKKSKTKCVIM
Put plainly: Bio-Biochem-PPI-HTRF Ras-SOS1 interaction assay (KRAS wt). It counts as biochemical. The conditions noted are these: 5 nM. The procedure, abridged:
as §1

T1 sequence (P01116 1-188 isoform P01116-2 G12D): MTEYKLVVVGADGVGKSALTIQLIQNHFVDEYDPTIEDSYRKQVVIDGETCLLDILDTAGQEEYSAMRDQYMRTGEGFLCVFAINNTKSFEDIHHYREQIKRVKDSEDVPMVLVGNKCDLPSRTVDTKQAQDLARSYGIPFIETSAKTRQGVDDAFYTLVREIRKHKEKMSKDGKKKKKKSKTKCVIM

The term IC50 denotes the concentration needed to halve the response being measured. For the compound `Cn1nccc1C(=O)N1CC2(CCCCN(c3nc(OC[C@@]45CCCN4C[C@H](F)C5)nc4c(F)c(-c5ccc(F)c6sc(N)c(C#N)c56)c(Cl)cc34)C2)C1` [compound 134, 2-amino-4-(6-chloro-8-fluoro-2-(((2R,7aS)-2-fluorotetrahydro-1H-pyrrolizin-7a(5H)-yl)methoxy)-4-(2-(1-methyl-1H-pyrazole-5-carbonyl)-2,6-diazaspiro[3.6]decan-6-yl)quinazolin-7-yl)-7-fluorobenzo[b]thiophene-3-carbonitrile], the IC50 against KRASG12D and on KRASwt was less than 5 µM throughout.
For `N#Cc1c(N)sc2c(F)ccc(-c3c(Cl)cc4c(N5CCCCC6(CN(C(=O)CC7COC7)C6)C5)nc(OC[C@@]56CCCN5C[C@H](F)C6)nc4c3F)c12` [compound 273, 2-amino-4-(6-chloro-8-fluoro-2-(((2R,7aS)-2-fluorotetrahydro-1H-pyrrolizin-7a(5H)-yl)methoxy)-4-(2-(2-(oxetan-3-yl)acetyl)-2,6-diazaspiro[3.6]decan-6-yl)quinazolin-7-yl)-7-fluorobenzo[b]thiophene-3-carbonitrile], the IC50 on KRASG12D and on KRASwt was less than 5 µM in each case.
Take `Nc1nc2c(-c3c(Cl)cc4c(N5CCCC6(CCNC6)C5)nc(OC[C@@]56CCCN5C[C@H](F)C6)nc4c3F)ccc(F)c2s1` (stereo partly drawn) [compound 130, 4-(6-chloro-8-fluoro-2-(((2R,7aS)-2-fluorotetrahydro-1H-pyrrolizin-7a(5H)-yl)methoxy)-4-(2,7-diazaspiro[4.5]decan-7-yl)quinazolin-7-yl)-7-fluorobenzo[d]thiazol-2-amine]: the IC50 against KRASG12D and against KRASwt was less than 5 µM each time.
For `N#Cc1c(N)sc2c(F)ccc(-c3c(Cl)cc4c(N5CCOC6(CN(C(=O)c7ccnn7C(F)(F)F)C6)C5)nc(OC[C@@]56CCCN5C[C@H](F)C6)nc4c3F)c12` [compound 265, 2-amino-4-(6-chloro-8-fluoro-2-(((2R,7aS)-2-fluorotetrahydro-1H-pyrrolizin-7a(5H)-yl)methoxy)-4-(2-(1-(trifluoromethyl)-1H-pyrazole-5-carbonyl)-5-oxa-2,8-diazaspiro[3.5]nonan-8-yl)quinazolin-7-yl)-7-fluorobenzo[b]thiophene-3-carbonitrile], the IC50 at KRASG12D and against KRASwt was less than 5 µM each time.
Turning to `C[C@H](Oc1nc(N2CCCC3(CN(C(=O)C(F)(F)F)C3)C2)c2cc(Cl)c(-c3ccc(F)c4sc(N)c(C#N)c34)c(F)c2n1)[C@@H]1CCCN1C` [compound 123, 2-amino-4-(6-chloro-8-fluoro-2-((S)-1-((S)-1-methylpyrrolidin-2-yl)ethoxy)-4-(2-(2,2,2-trifluoroacetyl)-2,6-diazaspiro[3.5]nonan-6-yl)quinazolin-7-yl)-7-fluorobenzo[b]thiophene-3-carbonitrile], the IC50 against KRASG12D and against KRASwt was less than 5 µM throughout.
As for `CCN(C(=O)N1CC2(C1)CN(c1nc(OC[C@@]34CCCN3C[C@H](F)C4)nc3c(F)c(-c4ccc(F)c5sc(N)c(C#N)c45)c(Cl)cc13)CC(F)(F)O2)C(C)C` [compound 153, 8-(7-(2-amino-3-cyano-7-fluorobenzo[b]thiophen-4-yl)-6-chloro-8-fluoro-2-(((2R,7aS)-2-fluorotetrahydro-1H-pyrrolizin-7a(5H)-yl)methoxy)quinazolin-4-yl)-N-ethyl-6,6-difluoro-N-isopropyl-5-oxa-2,8-diazaspiro[3.5]nonane-2-carboxamide], the IC50 at KRASG12D and at KRASwt was less than 5 µM in each case.
As to `CC(F)(F)C(=O)N1CC2(CCCCN(c3nc(OC[C@@]45CCCN4C[C@H](F)C5)nc4c(F)c(-c5ccc(F)c6sc(N)c(C#N)c56)c(Cl)cc34)C2)C1` [compound 213, 2-amino-4-(6-chloro-4-(2-(2,2-difluoropropanoyl)-2,6-diazaspiro[3.6]decan-6-yl)-8-fluoro-2-(((2R,7aS)-2-fluorotetrahydro-1H-pyrrolizin-7a(5H)-yl)methoxy)quinazolin-7-yl)-7-fluorobenzo[b]thiophene-3-carbonitrile], the IC50 on KRASG12D and at KRASwt was less than 5 µM throughout.
As to `N#Cc1c(N)sc2c(F)ccc(-c3c(Cl)cc4c(N5CCCCC6(CN(C(=O)CC7CCOCC7)C6)C5)nc(OC[C@@]56CCCN5C[C@H](F)C6)nc4c3F)c12` [compound 204, 2-amino-4-(6-chloro-8-fluoro-2-(((2R,7aS)-2-fluorotetrahydro-1H-pyrrolizin-7a(5H)-yl)methoxy)-4-(2-(2-(tetrahydro-2H-pyran-4-yl)acetyl)-2,6-diazaspiro[3.6]decan-6-yl)quinazolin-7-yl)-7-fluorobenzo[b]thiophene-3-carbonitrile], the IC50 on KRASG12D and against KRASwt was less than 5 µM each time.
For `C#Cc1c(F)ccc2cc(O)cc(-c3ncc4c(N5CCCCC6(CN(C(=O)C(F)F)C6)C5)nc(OC[C@@]56CCCN5C[C@H](F)C6)nc4c3F)c12` [compound 344, 1-(6-(7-(8-ethynyl-7-fluoro-3-hydroxynaphthalen-1-yl)-8-fluoro-2-(((2R,7aS)-2-fluorotetrahydro-1H-pyrrolizin-7a(5H)-yl)methoxy)pyrido [4,3-d]pyrimidin-4-yl)-2,6-diazaspiro[3.6]decan-2-yl)-2,2-difluoroethan-1-one], the IC50 against KRASG12D and on KRASwt was less than 5 µM throughout.
`N#Cc1c(N)sc2c(F)ccc(-c3c(Cl)cc4c(N5CCC(F)(F)CC6(CN(C(=O)C78CC(F)(C7)C8)C6)C5)nc(OC[C@@]56CCCN5C[C@H](F)C6)nc4c3F)c12` [compound 229, 2-amino-4-(6-chloro-4-(9,9-difluoro-2-(3-fluorobicyclo[1.1.1]pentane-1-carbonyl)-2,6-diazaspiro[3.6]decan-6-yl)-8-fluoro-2-(((2R,7aS)-2-fluorotetrahydro-1H-pyrrolizin-7a(5H)-yl)methoxy)quinazolin-7-yl)-7-fluorobenzo[b]thiophene-3-carbonitrile]: the IC50 against KRASG12D and against KRASwt was less than 5 µM throughout.
As for `N#Cc1c(N)sc2c(F)ccc(-c3c(Cl)cc4c(N5CCCCC6(CN(C(=O)C7(C(F)(F)F)CC7)C6)C5)nc(OC[C@@]56CCCN5C[C@H](F)C6)nc4c3F)c12` [compound 244, 2-amino-4-(6-chloro-8-fluoro-2-(((2R,7aS)-2-fluorotetrahydro-1H-pyrrolizin-7a(5H)-yl)methoxy)-4-(2-(1-(trifluoromethyl)cyclopropane-1-carbonyl)-2,6-diazaspiro[3.6]decan-6-yl)quinazolin-7-yl)-7-fluorobenzo[b] thiophene-3-carbonitrile], the 50% inhibitory concentration (IC50) at KRASG12D and at KRASwt was less than 5 µM each time.
Regarding `N#Cc1c(N)sc2c(F)ccc(-c3c(Cl)cc4c(N5CCCC6(CN(C(=O)C(F)Cl)C6)C5)nc(OC[C@@]56CCCN5C[C@H](F)C6)nc4c3F)c12` (stereo partly drawn) [compound 184, 2-amino-4-(6-chloro-4-(2-(2-chloro-2-fluoroacetyl)-2,6-diazaspiro[3.5]nonan-6-yl)-8-fluoro-2-(((2R,7aS)-2-fluorotetrahydro-1H-pyrrolizin-7a(5H)-yl)methoxy)quinazolin-7-yl)-7-fluorobenzo[b]thiophene-3-carbonitrile], the IC50 against KRASG12D and at KRASwt was less than 5 µM throughout.
